Eight molecules from ChEMBL document CHEMBL1122825, “Peptide sweeteners. 8. Synthesis and structure-taste relationship studies of L-aspartyl-D-alanyl tripeptides” (J Med Chem, 1985) can be followed below.

Where a SMILES comes first, the peptide text is derived from it. [ ]: non-standard residue; d: D form. Ac6c = NC1(C(=O)O)CCCCC1; Ac5c = NC1(C(=O)O)CCCC1; Ac4c = NC1(C(=O)O)CCC1; Deg = CCC(N)(CC)C(=O)O; Ac3c = NC1(C(=O)O)CC1; Aib = CC(C)(N)C(=O)O

A short description of the first assay: Compound is evaluated for sweet potency; +=Sweet.
In the case of `COC(=O)C1(NC(=O)[C@H](C)NC(=O)[C@@H](N)CC(=O)O)CC1` (H-Asp-Ala-[Ac3c]-OMe), the Sweetness potency result is reported as “Sweet”.

Turning to `COC(=O)C1(NC(=O)[C@H](C)NC(=O)[C@@H](N)CC(=O)O)CCC1` (H-Asp-Ala-[Ac4c]-OMe), the Sweetness potency entry is recorded as “Sweet”.

Regarding `COC(=O)C1(NC(=O)[C@H](C)NC(=O)[C@@H](N)CC(=O)O)CCCC1` (H-Asp-Ala-[Ac5c]-OMe), the Sweetness potency entry is given as “Sweet”.

For `COC(=O)C1(NC(=O)[C@H](C)NC(=O)[C@@H](N)CC(=O)O)CCCCC1` (H-Asp-Ala-[Ac6c]-OMe), the Sweetness potency result is on record as “Sweet”.

With `COC(=O)C(C)(C)NC(=O)[C@H](C)NC(=O)[C@@H](N)CC(=O)O` (H-Asp-Ala-[Aib]-OMe), the Sweetness potency result is “Sweet”.

On to `CCC(CC)(NC(=O)[C@H](C)NC(=O)[C@@H](N)CC(=O)O)C(=O)OC` (H-Asp-Ala-[Deg]-OMe), for which the Sweetness potency result is given as “Sweet”.

The next assay can be described thus: Compound is evaluated for sweet potency; -=Bitter.
As for `COC(=O)C1(NC(=O)[C@H](C)NC(=O)[C@@H](N)CC(=O)O)CCCCCC1`, the Sweetness potency result is recorded as “Bitter”.

As for `COC(=O)C1(NC(=O)[C@H](C)NC(=O)[C@@H](N)CC(=O)O)CCCCCCC1`, the Sweetness potency entry is listed as “Bitter”.
